Data: ChEMBL document CHEMBL4359931, “Synthesis, biological evaluation and molecular docking studies of new amides of 4-bromothiocolchicine as anticancer agents” (Bioorg Med Chem, 2019)
Activity calls are given as the source filed them. No cut-off for these calls is given here.

Key:
[1] = Cell cycle arrest in human ALL5 cells assessed as accumulation in S phase at 5 times of antiproliferative IC50 incubated for 48 hrs by propidium iodide based flow cytometry (reference value: 10.3 %); format: functional
[2] = Antiproliferative activity against human LoVo/DX cells assessed as reduction in cell viability incubated for 120 hrs by MTT assay; format: functional, cell-based
Homo sapiens [3] = species: Homo sapiens; test: Induction of cell death in human ALL5 cells assessed as decrease in 4 N DNA at 5 times of antiproliferative IC50 incubated for 72 hrs by propidium iodide based flow cytometry; format: functional
[4] = Cell cycle arrest in human ALL5 cells assessed as accumulation in subG1 phase at 5 times of antiproliferative IC50 incubated for 48 hrs by propidium iodide based flow cytometry (reference value: 11 %); format: functional
MCF7 [5] = test: Cell cycle arrest in human MCF7 cells assessed as accumulation in S phase at 5 times of antiproliferative IC50 incubated for 24 hrs by propidium iodide based flow cytometry (reference value: 19.9 %); format: functional
[6] = Cell cycle arrest in human ALL5 cells assessed as accumulation in G1 phase at 5 times of antiproliferative IC50 incubated for 72 hrs by propidium iodide based flow cytometry (reference value: 59.7 %); format: functional
[7] = Selectivity index, ratio of IC50 of mouse BALB/3T3 cells to IC50 of human LoVo cells; format: toxicity; conditions: BALB/3T3 cells versus LoVo cells, read-out: Ratio IC50
[8] = Selectivity index, ratio of IC50 of mouse BALB/3T3 cells to IC50 of human MCF7 cells; format: toxicity; conditions: BALB/3T3 cells versus MCF7 cells, read-out: Ratio IC50
MCF7 [9] = test: Cell cycle arrest in human MCF7 cells assessed as accumulation in G2 phase at 5 times of antiproliferative IC50 incubated for 24 hrs by propidium iodide based flow cytometry (reference value: 22.4 %); format: functional
[10] = Cell cycle arrest in human ALL5 cells assessed as accumulation in G2 phase at 5 times of antiproliferative IC50 incubated for 72 hrs by propidium iodide based flow cytometry (reference value: 11.3 %); format: functional
Homo sapiens [11] = species: Homo sapiens; test: Induction of cell cycle arrest in human ALL5 cells assessed as increase in 4 N DNA at 5 times of antiproliferative IC50 incubated for 48 hrs by propidium iodide based flow cytometry; format: functional
MCF7 [12] = test: Cell cycle arrest in human MCF7 cells assessed as accumulation in G2 phase at 5 times of antiproliferative IC50 incubated for 72 hrs by propidium iodide based flow cytometry (reference value: 18.6 %); format: functional
[13] = Cell cycle arrest in human ALL5 cells assessed as accumulation in G2 phase at 5 times of antiproliferative IC50 incubated for 48 hrs by propidium iodide based flow cytometry (reference value: 11.2 %); format: functional
MCF7 [14] = test: Cell cycle arrest in human MCF7 cells assessed as accumulation in G2 phase at 5 times of antiproliferative IC50 incubated for 48 hrs by propidium iodide based flow cytometry (reference value: 16 %); format: functional
Homo sapiens [15] = species: Homo sapiens; test: Induction of cell cycle arrest in human ALL5 cells assessed as increase in 4 N DNA at 5 times of antiproliferative IC50 incubated for 24 hrs by propidium iodide based flow cytometry; format: functional
MCF7 [16] = test: Antiproliferative activity against human MCF7 cells assessed as reduction in cell viability incubated for 120 hrs by MTT assay; format: functional, cell-based; conditions: MCF7, 120 h
[17] = Selectivity index, ratio of IC50 of mouse BALB/3T3 cells to IC50 of human LoVo/DX cells; format: toxicity; conditions: BALB/3T3 cells versus LoVo/DX cells, read-out: Ratio IC50
MCF7 [18] = test: Cell cycle arrest in human MCF7 cells assessed as accumulation in G1 phase at 5 times of antiproliferative IC50 incubated for 48 hrs by propidium iodide based flow cytometry (reference value: 40.8 %); format: functional
LoVo = test: Antiproliferative activity against human LoVo cells assessed as reduction in cell viability incubated for 120 hrs by MTT assay; format: functional, cell-based
[19] = Resistance index, ratio of IC50 of human LoVo/DX cells to IC50 of human LoVo cells; format: functional
MCF7 [20] = test: Cell cycle arrest in human MCF7 cells assessed as accumulation in S phase at 5 times of antiproliferative IC50 incubated for 48 hrs by propidium iodide based flow cytometry (reference value: 34 %); format: functional
MCF7 [21] = test: Cell cycle arrest in human MCF7 cells assessed as accumulation in subG1 phase at 5 times of antiproliferative IC50 incubated for 72 hrs by propidium iodide based flow cytometry (reference value: 3.59 %); format: functional
[22] = Cell cycle arrest in human ALL5 cells assessed as accumulation in subG1 phase at 5 times of antiproliferative IC50 incubated for 24 hrs by propidium iodide based flow cytometry (reference value: 10.5 %); format: functional
[23] = Antiproliferative activity against human ALL5 cells assessed as reduction in cell viability incubated for 120 hrs by MTT assay; format: functional, cell-based; conditions: ALL5, 120 h
[24] = Selectivity index, ratio of IC50 of mouse BALB/3T3 cells to IC50 of human A549 cells
BALB/3T3 = test: Antiproliferative activity against mouse BALB/3T3 cells assessed as reduction in cell viability incubated for 120 hrs by MTT assay; format: cell-based; conditions: BALB/3T3, 120 h
[25] = Selectivity index, ratio of IC50 of mouse BALB/3T3 cells to IC50 of human ALL5 cells
[26] = Cell cycle arrest in human ALL5 cells assessed as accumulation in G2 phase at 5 times of antiproliferative IC50 incubated for 24 hrs by propidium iodide based flow cytometry (reference value: 10.6 %); format: functional
MCF7 [27] = test: Cell cycle arrest in human MCF7 cells assessed as accumulation in subG1 phase at 5 times of antiproliferative IC50 incubated for 24 hrs by propidium iodide based flow cytometry (reference value: 7.79 %); format: functional
MCF7 [28] = test: Cell cycle arrest in human MCF7 cells assessed as accumulation in subG1 phase at 5 times of antiproliferative IC50 incubated for 48 hrs by propidium iodide based flow cytometry (reference value: 9.19 %); format: functional
[29] = Cell cycle arrest in human ALL5 cells assessed as accumulation in S phase at 5 times of antiproliferative IC50 incubated for 24 hrs by propidium iodide based flow cytometry (reference value: […]); format: functional
MCF7 [30] = test: Cell cycle arrest in human MCF7 cells assessed as accumulation in G1 phase at 5 times of antiproliferative IC50 incubated for 24 hrs by propidium iodide based flow cytometry (reference value: 49.9 %); format: functional
[31] = Cell cycle arrest in human ALL5 cells assessed as accumulation in subG1 phase at 5 times of antiproliferative IC50 incubated for 72 hrs by propidium iodide based flow cytometry (reference value: 15.5 %); format: functional
[32] = Cell cycle arrest in human ALL5 cells assessed as accumulation in G1 phase at 5 times of antiproliferative IC50 incubated for 24 hrs by propidium iodide based flow cytometry (reference value: 68.1 %); format: functional
MCF7 [33] = test: Cell cycle arrest in human MCF7 cells assessed as accumulation in G1 phase at 5 times of antiproliferative IC50 incubated for 72 hrs by propidium iodide based flow cytometry (reference value: 58 %); format: functional
[34] = Cell cycle arrest in human ALL5 cells assessed as accumulation in G1 phase at 5 times of antiproliferative IC50 incubated for 48 hrs by propidium iodide based flow cytometry (reference value: 67.4 %); format: functional
A549 = test: Antiproliferative activity against human A549 cells assessed as reduction in cell viability incubated for 120 hrs by MTT assay; format: functional, cell-based; conditions: A549, 120 h
MCF7 [35] = test: Cell cycle arrest in human MCF7 cells assessed as accumulation in S phase at 5 times of antiproliferative IC50 incubated for 72 hrs by propidium iodide based flow cytometry (reference value: 19.8 %); format: functional
[36] = Cell cycle arrest in human ALL5 cells assessed as accumulation in S phase at 5 times of antiproliferative IC50 incubated for 72 hrs by propidium iodide based flow cytometry (reference value: 13.5 %); format: functional

| SMILES | Activity [1] [%] | IC50 [2] [nM] | Activity (Homo sapiens [3]) | Activity [4] [%] | Activity (MCF7 [5]) [%] | Activity [6] [%] | selectivity ratio [7] | selectivity ratio [8] | Activity (MCF7 [9]) [%] | Activity [10] [%] | Activity (Homo sapiens [11]) | Activity (MCF7 [12]) [%] | Activity [13] [%] | Activity (MCF7 [14]) [%] | Activity (Homo sapiens [15]) | IC50 (MCF7 [16]) [nM] | selectivity ratio [17] | Activity (MCF7 [18]) [%] | IC50 (LoVo) [nM] | Ratio IC50 [19] | also measured |
| --- | --- | --- | --- | --- | --- | --- | --- | --- | --- | --- | --- | --- | --- | --- | --- | --- | --- | --- | --- | --- | --- |
| COc1c(Br)c2c(c(OC)c1OC)-c1ccc(SC)c(=O)cc1[C@@H](NC(=O)C(C)C)CC2 | 15.9 | 75.9 | Active | 31.9 | 5.16 | 23 | 2.9 | 1.8 | 78 | 7.59 | Active | 57.5 | 20 | 66.3 | Active | 11.5 | 0.3 | 11.4 | 7 | 10.8 | Activity (MCF7 [20]): 10.6%; Activity (MCF7 [21]): 17.5%; Activity [22]: 18%; IC50 [23]: 8.6 nM; Ratio IC50 [24]: 2; IC50 (BALB/3T3): 20.4 nM; Ratio IC50 [25]: 2.4; Activity [26]: 15.8%; Activity (MCF7 [27]): 4.89%; Activity (MCF7 [28]): 11.8%; Activity [29]: 13.7%; Activity (MCF7 [30]): 12%; Activity [31]: 46.9%; Activity [32]: 52.5%; Activity (MCF7 [33]): 9.6%; Activity [34]: 32.1%; IC50 (A549): 10.2 nM; Activity (MCF7 [35]): 15.4%; Activity [36]: 22.5% |
| CCC(=O)N[C@H]1CCc2c(Br)c(OC)c(OC)c(OC)c2-c2ccc(SC)c(=O)cc21 | 14.5 | 87.2 | Active | 33 | 7.61 | 25.7 | 1.6 | 1 | 74.3 | 8.93 | Active | 53.8 | 17.5 | 63.7 | Active | 11.2 | 0.1 | 15 | 7.2 | 12.1 | Activity (MCF7 [20]): 8.78%; Activity (MCF7 [21]): 17.7%; Activity [22]: 17.4%; IC50 [23]: 8.5 nM; Ratio IC50 [24]: 1.1; IC50 (BALB/3T3): 11.2 nM; Ratio IC50 [25]: 1.3; Activity [26]: 17.2%; Activity (MCF7 [27]): 6.15%; Activity (MCF7 [28]): 12.5%; Activity [29]: 12.9%; Activity (MCF7 [30]): 12%; Activity [31]: 45.8%; Activity [32]: 52.4%; Activity (MCF7 [33]): 12.2%; Activity [34]: 35%; IC50 (A549): 10.5 nM; Activity (MCF7 [35]): 16.3%; Activity [36]: 19.5% |
